Residues, ends and D or L forms follow the SMILES beside them.
Tests used:
[1] = system: Human immunodeficiency virus 1; experiment: Thermal stability of HIV1 envelope glycoprotein gp41 His-tagged N-terminal heptad repeat N54-drug complex assessed as thermal unfolding transition state by measuring molar ellipticity at 4 to 90 degC by circular dichroic spectra analysis
[2] = system: Human immunodeficiency virus 1; experiment: Binding affinity to HIV1 His-tagged N-terminal heptad repeat of envelope glycoprotein gp41 assessed as recovery of N54-drug complex after 2 hrs by LC-MS analysis; set-up: concentration or dose not given beside the values
[3] = system: Human immunodeficiency virus 1; experiment: Antiviral activity against HIV1 NL4-3 harboring gp41 D36G mutant infected in human HeLa cells expressing CD4-LTR-beta-gal assessed as inhibition of viral replication after 48 hrs by MAGI assay; format: functional, organism-based

Row | SMILES | Tm [1] [°C] | Activity [2] [%] | EC50 [3] [nM]
1 | CC[C@H](C)[C@H](NC(=O)[C@H](CC(C)C)NC(=O)[C@H](CCC(=O)O)NC(=O)[C@H](CCC(=O)O)NC(=O)[C@@H](NC(=O)[C@H](CC(C)C)NC(=O)[C@H](CO)NC(=O)[C@@H](NC(=O)[C@H](Cc1ccc(O)cc1)NC(C)=O)[C@@H](C)O)[C@@H](C)CC)C(=O)N[C@@H](CCCCN)C(=O)N[C@@H](CCCCN)C(=O)N[C@@H](CC(N)=O)C(=O)N[C@@H](CCC(=O)O)C(=O)N[C@@H](CCC(=O)O)C(=O)N[C@@H](CCC(N)=O)C(=O)N[C@@H](CCC(N)=O)C(=O)N[C@@H](CCCCN)C(=O)N[C@@H](CCCCN)C(=O)N[C@@H](CC(N)=O)C(=O)N[C@@H](CCC(=O)O)C(=O)N[C@@H](CCC(=O)O)C(=O)N[C@@H](CCC(=O)O)C(=O)N[C@@H](CC(C)C)C(=O)N[C@@H](CCCCN)C(=O)N[C@@H](CCCCN)C(=O)N[C@@H](CC(C)C)C(=O)N[C@@H](CCC(=O)O)C(=O)N[C@@H](CCC(=O)O)C(=O)N[C@@H](Cc1c[nH]c2ccccc12)C(=O)N[C@@H](C)C(=O)N[C@@H](CCCCN)C(=O)N[C@@H](CCCCN)C(=O)N[C@@H](Cc1c[nH]c2ccccc12)C(=O)N[C@@H](CC(N)=O)C(=O)N[C@@H](Cc1c[nH]c2ccccc12)C(=O)N[C@@H](Cc1ccccc1)C(N)=O (Ac-YTSLIEELIKKNEEQQKKNEEELKKLEEWAKKWNWF-NH2) | 65.7 | 3.5 | 4.8
2 | CC[C@H](C)[C@H](NC(=O)[C@H](CC(C)C)NC(=O)[C@H](CCC(=O)O)NC(=O)[C@H](CCC(=O)O)NC(=O)[C@@H](NC(=O)[C@H](CC(C)C)NC(=O)[C@H](CO)NC(=O)[C@@H](NC(=O)[C@H](Cc1ccc(O)cc1)NC(C)=O)[C@@H](C)O)[C@@H](C)CC)C(=O)N[C@@H](CCCCN)C(=O)N[C@@H](CCCCN)C(=O)N[C@@H](CO)C(=O)N[C@@H](CCC(=O)O)C(=O)N[C@@H](CCC(=O)O)C(=O)N[C@@H](CO)C(=O)N[C@@H](CCC(N)=O)C(=O)N[C@@H](CCCCN)C(=O)N[C@@H](CCCCN)C(=O)N[C@@H](CC(N)=O)C(=O)N[C@@H](CCC(=O)O)C(=O)N[C@@H](CCC(=O)O)C(=O)N[C@@H](CCC(=O)O)C(=O)N[C@@H](CC(C)C)C(=O)N[C@@H](CCCCN)C(=O)N[C@@H](CCCCN)C(=O)N[C@@H](CC(C)C)C(=O)N[C@@H](CCC(=O)O)C(=O)N[C@@H](CCC(=O)O)C(=O)N[C@@H](Cc1c[nH]c2ccccc12)C(=O)N[C@@H](C)C(=O)N[C@@H](CCCCN)C(=O)N[C@@H](CCCCN)C(=O)N[C@@H](Cc1c[nH]c2ccccc12)C(=O)N[C@@H](CC(N)=O)C(=O)N[C@@H](Cc1c[nH]c2ccccc12)C(=O)N[C@@H](Cc1ccccc1)C(N)=O (Ac-YTSLIEELIKKSEESQKKNEEELKKLEEWAKKWNWF-NH2) | 66.7 | 3.2 | 4.6
3 | CC[C@H](C)[C@H](NC(=O)[C@H](CC(C)C)NC(=O)[C@H](CCC(=O)O)NC(=O)[C@H](CCC(=O)O)NC(=O)[C@@H](NC(=O)[C@H](CC(C)C)NC(=O)[C@H](CO)NC(=O)[C@@H](NC(=O)[C@H](Cc1ccc(O)cc1)NC(C)=O)[C@@H](C)O)[C@@H](C)CC)C(=O)N[C@@H](CCCCN)C(=O)N[C@@H](CCCCN)C(=O)N[C@@H](CCC(=O)O)C(=O)N[C@@H](CCC(=O)O)C(=O)N[C@@H](CCC(=O)O)C(=O)N[C@@H](CCC(N)=O)C(=O)N[C@@H](CCC(N)=O)C(=O)N[C@@H](CCCCN)C(=O)N[C@@H](CCCCN)C(=O)N[C@@H](CC(N)=O)C(=O)N[C@@H](CCC(=O)O)C(=O)N[C@@H](CCC(=O)O)C(=O)N[C@@H](CCC(=O)O)C(=O)N[C@@H](CC(C)C)C(=O)N[C@@H](CCCCN)C(=O)N[C@@H](CCCCN)C(=O)N[C@@H](CC(C)C)C(=O)N[C@@H](CCC(=O)O)C(=O)N[C@@H](CCC(=O)O)C(=O)N[C@@H](Cc1c[nH]c2ccccc12)C(=O)N[C@@H](C)C(=O)N[C@@H](CCCCN)C(=O)N[C@@H](CCCCN)C(=O)N[C@@H](Cc1c[nH]c2ccccc12)C(=O)N[C@@H](CC(N)=O)C(=O)N[C@@H](Cc1c[nH]c2ccccc12)C(=O)N[C@@H](Cc1ccccc1)C(N)=O (Ac-YTSLIEELIKKEEEQQKKNEEELKKLEEWAKKWNWF-NH2) | 61 | 2.2 | 230
4 | CC[C@H](C)[C@H](NC(=O)[C@H](CC(C)C)NC(=O)[C@H](CCC(=O)O)NC(=O)[C@H](CCC(=O)O)NC(=O)[C@@H](NC(=O)[C@H](CC(C)C)NC(=O)[C@H](CO)NC(=O)[C@@H](NC(=O)[C@H](Cc1ccc(O)cc1)NC(C)=O)[C@@H](C)O)[C@@H](C)CC)C(=O)N[C@@H](CCCCN)C(=O)N[C@@H](CCCCN)C(=O)N[C@@H](CO)C(=O)N[C@@H](CCC(=O)O)C(=O)N[C@@H](CCC(=O)O)C(=O)N[C@H](C(=O)N[C@@H](CCC(N)=O)C(=O)N[C@@H](CCCCN)C(=O)N[C@@H](CCCCN)C(=O)N[C@@H](CC(N)=O)C(=O)N[C@@H](CCC(=O)O)C(=O)N[C@@H](CCC(=O)O)C(=O)N[C@@H](CCC(=O)O)C(=O)N[C@@H](CC(C)C)C(=O)N[C@@H](CCCCN)C(=O)N[C@@H](CCCCN)C(=O)N[C@@H](CC(C)C)C(=O)N[C@@H](CCC(=O)O)C(=O)N[C@@H](CCC(=O)O)C(=O)N[C@@H](Cc1c[nH]c2ccccc12)C(=O)N[C@@H](C)C(=O)N[C@@H](CCCCN)C(=O)N[C@@H](CCCCN)C(=O)N[C@@H](Cc1c[nH]c2ccccc12)C(=O)N[C@@H](CC(N)=O)C(=O)N[C@@H](Cc1c[nH]c2ccccc12)C(=O)N[C@@H](Cc1ccccc1)C(N)=O)[C@@H](C)O (Ac-YTSLIEELIKKSEETQKKNEEELKKLEEWAKKWNWF-NH2) | 71.6 | 6.9 | 2.1
5 | CC[C@H](C)[C@H](NC(=O)[C@H](CC(C)C)NC(=O)[C@H](CCC(=O)O)NC(=O)[C@H](CCC(=O)O)NC(=O)[C@@H](NC(=O)[C@H](CC(C)C)NC(=O)[C@H](CO)NC(=O)[C@@H](NC(=O)[C@H](Cc1ccc(O)cc1)NC(C)=O)[C@@H](C)O)[C@@H](C)CC)C(=O)N[C@@H](CCCCN)C(=O)N[C@@H](CCCCN)C(=O)N[C@@H](CO)C(=O)N[C@@H](CCC(=O)O)C(=O)N[C@@H](CCC(=O)O)C(=O)N[C@@H](CCC(=O)O)C(=O)N[C@@H](CCC(N)=O)C(=O)N[C@@H](CCCCN)C(=O)N[C@@H](CCCCN)C(=O)N[C@@H](CC(N)=O)C(=O)N[C@@H](CCC(=O)O)C(=O)N[C@@H](CCC(=O)O)C(=O)N[C@@H](CCC(=O)O)C(=O)N[C@@H](CC(C)C)C(=O)N[C@@H](CCCCN)C(=O)N[C@@H](CCCCN)C(=O)N[C@@H](CC(C)C)C(=O)N[C@@H](CCC(=O)O)C(=O)N[C@@H](CCC(=O)O)C(=O)N[C@@H](Cc1c[nH]c2ccccc12)C(=O)N[C@@H](C)C(=O)N[C@@H](CCCCN)C(=O)N[C@@H](CCCCN)C(=O)N[C@@H](Cc1c[nH]c2ccccc12)C(=O)N[C@@H](CC(N)=O)C(=O)N[C@@H](Cc1c[nH]c2ccccc12)C(=O)N[C@@H](Cc1ccccc1)C(N)=O (Ac-YTSLIEELIKKSEEEQKKNEEELKKLEEWAKKWNWF-NH2) | 71.8 | 8.2 | 3.8
6 | CC[C@H](C)[C@H](NC(=O)[C@H](CC(C)C)NC(=O)[C@H](CCC(=O)O)NC(=O)[C@H](CCC(=O)O)NC(=O)[C@@H](NC(=O)[C@H](CC(C)C)NC(=O)[C@H](CO)NC(=O)[C@@H](NC(=O)[C@H](Cc1ccc(O)cc1)NC(C)=O)[C@@H](C)O)[C@@H](C)CC)C(=O)N[C@@H](CCCCN)C(=O)N[C@@H](CCCCN)C(=O)N[C@@H](CO)C(=O)N[C@@H](CCC(=O)O)C(=O)N[C@@H](CCC(=O)O)C(=O)N[C@@H](Cc1ccccc1)C(=O)N[C@@H](CCC(N)=O)C(=O)N[C@@H](CCCCN)C(=O)N[C@@H](CCCCN)C(=O)N[C@@H](CC(N)=O)C(=O)N[C@@H](CCC(=O)O)C(=O)N[C@@H](CCC(=O)O)C(=O)N[C@@H](CCC(=O)O)C(=O)N[C@@H](CC(C)C)C(=O)N[C@@H](CCCCN)C(=O)N[C@@H](CCCCN)C(=O)N[C@@H](CC(C)C)C(=O)N[C@@H](CCC(=O)O)C(=O)N[C@@H](CCC(=O)O)C(=O)N[C@@H](Cc1c[nH]c2ccccc12)C(=O)N[C@@H](C)C(=O)N[C@@H](CCCCN)C(=O)N[C@@H](CCCCN)C(=O)N[C@@H](Cc1c[nH]c2ccccc12)C(=O)N[C@@H](CC(N)=O)C(=O)N[C@@H](Cc1c[nH]c2ccccc12)C(=O)N[C@@H](Cc1ccccc1)C(N)=O (Ac-YTSLIEELIKKSEEFQKKNEEELKKLEEWAKKWNWF-NH2) | 64 | 5.3 | 2.6
7 | CC[C@H](C)[C@H](NC(=O)[C@H](CC(C)C)NC(=O)[C@H](CCC(=O)O)NC(=O)[C@H](CCC(=O)O)NC(=O)[C@@H](NC(=O)[C@H](CC(C)C)NC(=O)[C@H](CO)NC(=O)[C@@H](NC(=O)[C@H](Cc1ccc(O)cc1)NC(C)=O)[C@@H](C)O)[C@@H](C)CC)C(=O)N[C@@H](CCCCN)C(=O)N[C@@H](CCCCN)C(=O)N[C@@H](CO)C(=O)N[C@@H](CCC(=O)O)C(=O)N[C@@H](CCC(=O)O)C(=O)N[C@@H](Cc1cnc[nH]1)C(=O)N[C@@H](CCC(N)=O)C(=O)N[C@@H](CCCCN)C(=O)N[C@@H](CCCCN)C(=O)N[C@@H](CC(N)=O)C(=O)N[C@@H](CCC(=O)O)C(=O)N[C@@H](CCC(=O)O)C(=O)N[C@@H](CCC(=O)O)C(=O)N[C@@H](CC(C)C)C(=O)N[C@@H](CCCCN)C(=O)N[C@@H](CCCCN)C(=O)N[C@@H](CC(C)C)C(=O)N[C@@H](CCC(=O)O)C(=O)N[C@@H](CCC(=O)O)C(=O)N[C@@H](Cc1c[nH]c2ccccc12)C(=O)N[C@@H](C)C(=O)N[C@@H](CCCCN)C(=O)N[C@@H](CCCCN)C(=O)N[C@@H](Cc1c[nH]c2ccccc12)C(=O)N[C@@H](CC(N)=O)C(=O)N[C@@H](Cc1c[nH]c2ccccc12)C(=O)N[C@@H](Cc1ccccc1)C(N)=O (Ac-YTSLIEELIKKSEEHQKKNEEELKKLEEWAKKWNWF-NH2) | 68.4 | 3.7 | 3

Source: ChEMBL document CHEMBL3390848, “Affinity selection and sequence-activity relationships of HIV-1 membrane fusion inhibitors directed at the drug-resistant variants” (Medchemcomm, 2010)
